Measured values published in patent publication US6479537B2, “Synergistic ectoparasiticidal methods and compositions” (American Cyanamid Company, priority 2000, dated 2002).
In brackets after ≈: the same amount, converted by molar mass. Several values for one entry are separate records, joined by “and”; a condition that tells them apart may be missing. Identical values can stand only once.

Test system: newly emerged larvae of the blowfly, Lucilia sericata
Assay: treated paper/serum bioassay, contact and/or ingestion activity against newly emerged blowfly larvae
Assay type: in vivo
Conditions: single compound
Protocol: Contact and/or ingestion activities of compounds against newly emerged larvae of the blowfly, Lucilia sericata, are tested using a treated paper/serum bioassay. In this assay, test compounds diluted to the required concentrations in acetone are applied to filter paper discs and allowed to dry. Bovine serum and newly emerged blowfly larvae are added to the discs and mortality assessed at 24 and 48 hours.

[1] = larval mortality assessed at 48 hours

Compound | LC50 (Lucilia sericata, 48 h, larval mortality assessed at 48 hours, read-out: Approximate LC50 48 hour) [µg/mL] | Approximate LC50 48 hour [1] | Approximate LC50 24 hour (larval mortality assessed at 24 hours)
CCOCn1c(-c2ccc(Cl)cc2)c(C#N)c(Br)c1C(F)(F)F [C, 4-bromo-2-(p-chlorophenyl)-1-(ethoxymethyl)-5-(trifluoromethyl)pyrrole-3-carbonitrile] | 2.5 (≈ 6.13 µM) | 4.69 µg/mL | –
moxidectin | – | 0.80 µg/mL and 0.63 µg/mL | 1.54 µg/mL and 0.85 µg/mL
